Key:
Format in all cases: functional
[1] = test system: SK-MEL-28; test: Growth inhibition of human SK-MEL-28 cells after 48 hrs by SRB staining method; settings: SK-MEL-28, 48 h
[2] = test system: M14; test: Growth inhibition of human M14 cells after 48 hrs by SRB staining method; settings: M14, 48 h
[3] = test system: SF-268; test: Growth inhibition of human SF268 cells after 48 hrs by SRB staining method; settings: SF-268, 48 h
[4] = test system: TK-10; test: Growth inhibition of human TK10 cells after 48 hrs by SRB staining method; settings: TK-10, 48 h
[5] = test system: T47D; test: Growth inhibition of human T47D cells after 48 hrs by SRB staining method
[6] = test system: UACC-62; test: Growth inhibition of human UACC62 cells after 48 hrs by SRB staining method; settings: UACC-62, 48 h
[7] = test system: SK-MEL-5; test: Growth inhibition of human SK-MEL-5 cells after 48 hrs by SRB staining method; settings: SK-MEL-5, 48 h
[8] = test system: A498; test: Growth inhibition of human A498 cells after 48 hrs by SRB staining method; settings: A498, 48 h
[9] = test system: K562; test: Growth inhibition of human K562 cells after 48 hrs by SRB staining method; settings: K562, 48 h
[10] = test system: SK-OV-3; test: Growth inhibition of human SKOV3 cells after 48 hrs by SRB staining method; settings: SK-OV-3, 48 h
[11] = test system: SR; test: Growth inhibition of human SR cells after 48 hrs by SRB staining method
[12] = test system: OVCAR-8; test: Growth inhibition of human OVCAR8 cells after 48 hrs by SRB staining method; settings: OVCAR-8, 48 h
[13] = test system: MCF7; test: Growth inhibition of human MCF7 cells after 48 hrs by SRB staining method; settings: MCF7, 48 h
[14] = test system: HCT-116; test: Growth inhibition of human HCT116 cells after 48 hrs by SRB staining method; settings: HCT-116, 48 h
[15] = test system: SF-295; test: Growth inhibition of human SF295 cells after 48 hrs by SRB staining method; settings: SF-295, 48 h
[16] = test system: ACHN; test: Growth inhibition of human ACHN cells after 48 hrs by SRB staining method
[17] = test system: PC-3; test: Growth inhibition of human PC3 cells after 48 hrs by SRB staining method; settings: PC-3, 48 h
[18] = test system: SNB-19; test: Growth inhibition of human SNB19 cells after 48 hrs by SRB staining method; settings: SNB-19, 48 h
[19] = test system: 786-0; test: Growth inhibition of human 786-0 cells after 48 hrs by SRB staining method; settings: 786-0, 48 h
[20] = test system: A549; test: Growth inhibition of human A549 cells after 48 hrs by SRB staining method; settings: A549, 48 h
[21] = test system: RXF 393; test: Growth inhibition of human RXF393 cells after 48 hrs by SRB staining method; settings: RXF 393, 48 h
[22] = test system: U-251; test: Growth inhibition of human U251 cells after 48 hrs by SRB staining method; settings: U-251, 48 h
[23] = test system: CAKI-1; test: Growth inhibition of human CAKI1 cells after 48 hrs by SRB staining method; settings: CAKI-1, 48 h
[24] = test system: UACC-257; test: Growth inhibition of human UACC257 cells after 48 hrs by SRB staining method; settings: UACC-257, 48 h
[25] = test system: KM12; test: Growth inhibition of human KM12 cells after 48 hrs by SRB staining method; settings: KM12, 48 h
[26] = test system: EKVX; test: Growth inhibition of human EKVX cells after 48 hrs by SRB staining method
[27] = test system: DU-145; test: Growth inhibition of human DU145 cells after 48 hrs by SRB staining method; settings: DU-145, 48 h
[28] = test system: NCI-H23; test: Growth inhibition of human NCI-H23 cells after 48 hrs by SRB staining method; settings: NCI-H23, 48 h
[29] = test system: IGROV-1; test: Growth inhibition of human IGROV1 cells after 48 hrs by SRB staining method; settings: IGROV-1, 48 h
[30] = test system: NCI/ADR-RES; test: Growth inhibition of human NCI/ADR-RES cells after 48 hrs by SRB staining method
[31] = test system: NCI-H460; test: Growth inhibition of human NCI-H460 cells after 48 hrs by SRB staining method; settings: NCI-H460, 48 h
[32] = test system: MDA-MB-435; test: Growth inhibition of human MDA-MB-435 cells after 48 hrs by SRB staining method; settings: MDA-MB-435, 48 h
[33] = test system: MDA-MB-231; test: Growth inhibition of human MDA-MB-231 cells after 48 hrs by SRB staining method; settings: MDA-MB-231, 48 h
[34] = read-out: pLC50 (the source's name) (converted)

COc1ccc(Nc2nc3cc(N)cc(N)c3nc2-c2ccccc2)cc1
GI50 [1]: 17 µM
CC50 [1, 34]: 55 µM
TGI ([1]; read-out: pTGI (converted)): 30.2 µM
GI50 [2]: 17.8 µM
LC50 [2]: 75.9 µM
TGI ([2]; read-out: pTGI (converted)): 36.3 µM
GI50 [3]: 12.9 µM
CC50 [3, 34]: 72.4 µM
TGI ([3]; read-out: pTGI (converted)): 30.9 µM
GI50 [4]: 16.6 µM
CC50 [4, 34]: > 100 µM
TGI ([4]; read-out: pTGI (converted)): 42.7 µM
GI50 [5]: 17.8 µM
CC50 [5, 34]: > 100 µM
TGI ([5]; read-out: pTGI (converted)): 53.7 µM
GI50 [6]: 17 µM
LC50 [6]: 55 µM
TGI ([6]; read-out: pTGI (converted)): 30.2 µM
GI50 [7]: 15.1 µM
LC50 [7]: 53.7 µM
TGI ([7]; read-out: pTGI (converted)): 28.8 µM
CC50 [8, 34]: > 100 µM
TGI ([8]; read-out: pTGI (converted)): > 100 µM
GI50 [9]: 29.5 µM
CC50 [9, 34]: > 100 µM
TGI ([9]; read-out: pTGI (converted)): > 100 µM
GI50 [10]: 33.1 µM
CC50 [10, 34]: > 100 µM
TGI ([10]; read-out: pTGI (converted)): 97.7 µM
GI50 [11]: 19.1 µM
CC50 [11, 34]: > 100 µM
TGI ([11]; read-out: pTGI (converted)): > 100 µM
GI50 [12]: 13.8 µM
CC50 [12, 34]: 67.6 µM
TGI ([12]; read-out: pTGI (converted)): 30.9 µM
GI50 [13]: 14.8 µM
CC50 [13, 34]: 52.5 µM
TGI ([13]; read-out: pTGI (converted)): 28.2 µM
GI50 [14]: 14.8 µM
LC50 [14]: 52.5 µM
TGI ([14]; read-out: pTGI (converted)): 28.2 µM
GI50 [15]: 31.6 µM
LC50 [15]: > 100 µM
TGI ([15]; read-out: pTGI (converted)): > 100 µM
GI50 [16]: 15.1 µM
CC50 [16, 34]: > 100 µM
TGI ([16]; read-out: pTGI (converted)): 43.7 µM
GI50 [17]: 20.9 µM
CC50 [17, 34]: > 100 µM
TGI ([17]; read-out: pTGI (converted)): 47.9 µM
GI50 [18]: 33.9 µM
LC50 [18]: > 100 µM
TGI ([18]; read-out: pTGI (converted)): > 100 µM
GI50 [19]: 15.8 µM
CC50 [19, 34]: 60.3 µM
TGI ([19]; read-out: pTGI (converted)): 30.9 µM
GI50 [20]: 27.5 µM
CC50 [20, 34]: > 100 µM
TGI ([20]; read-out: pTGI (converted)): > 100 µM
GI50 [21]: 11 µM
CC50 [21, 34]: 53.7 µM
TGI ([21]; read-out: pTGI (converted)): 24 µM
GI50 [22]: 16.2 µM
LC50 (50% lethal concentration) [22]: 55 µM
TGI ([22]; read-out: pTGI (converted)): 29.5 µM
GI50 [23]: 35.5 µM
CC50 [23, 34]: > 100 µM
TGI ([23]; read-out: pTGI (converted)): > 100 µM
GI50 [24]: 15.1 µM
LC50 [24]: 52.5 µM
TGI ([24]; read-out: pTGI (converted)): 27.5 µM
GI50 [25]: 15.8 µM
LC50 [25]: 60.3 µM
TGI ([25]; read-out: pTGI (converted)): 30.9 µM
GI50 [26]: 25.7 µM
CC50 [26, 34]: > 100 µM
TGI ([26]; read-out: pTGI (converted)): > 100 µM
GI50 [27]: 38.9 µM
CC50 [27, 34]: > 100 µM
TGI ([27]; read-out: pTGI (converted)): > 100 µM
GI50 [28]: 12.6 µM
LC50 [28]: 51.3 µM
TGI ([28]; read-out: pTGI (converted)): 25.1 µM
GI50 [29]: 15.5 µM
LC50 [29]: 83.2 µM
TGI ([29]; read-out: pTGI (converted)): 35.5 µM
GI50 [30]: 19.1 µM
CC50 [30, 34]: > 100 µM
TGI ([30]; read-out: pTGI (converted)): 44.7 µM
GI50 [31]: 26.9 µM
LC50 (concentration killing 50% of cells) [31]: > 100 µM
TGI ([31]; read-out: pTGI (converted)): 89.1 µM
GI50 [32]: 16.6 µM
CC50 [32, 34]: 55 µM
TGI ([32]; read-out: pTGI (converted)): 30.2 µM
GI50 [33]: 11.5 µM
CC50 [33, 34]: 55 µM
TGI ([33]; read-out: pTGI (converted)): 25.1 µM

Source: ChEMBL document CHEMBL1149774, “Synthesis of N-(5,7-diamino-3-phenyl-quinoxalin-2-yl)-3,4,5-substituted anilines and N-[4[(5,7-diamino-3-phenylquinoxalin-2-yl)amino]benzoyl]-l-glutamic acid diethyl ester: evaluation of in vitro anti-cancer and anti-folate activities” (Eur J Med Chem, 2008)
